The numbers were not newly measured in patent US11472859B2, “Method and composition for treating neuronal hyper-excitabtiity” (The Regents of the University of California, priority 2016, dated 2022), which cites them from elsewhere.

Entries after “also recorded” stand apart in the source; their conditions may differ.

One data set concerns spasticity. As to conditions: for anti-spasticity effect: systemic or spinal administration, clinical (and experimental animal) studies.
Data set [1] deals with brain or spinal parenchymal GABA release. As to conditions: after systemic delivery.

On to `Cc1ccsc1C(=CCCN1CCC[C@@H](C(=O)O)C1)c1sccc1C` [tiagabine], for which the anti-spasticity effect entry with spasticity was “only a weak or no anti-spasticity effect”. The “potentiation of brain or spinal parenchymal GABA release” value in data set [1] was “relatively modest potentiation”.
For the molecule `NCC(CC(=O)O)c1ccc(Cl)cc1` (stereo not shown) [baclofen], the side effects entry in the data set on spasticity (clinical use, systemic or spinal) is “major side effects such as general sedation and progressive tolerance development; also recorded: unwanted systemic side effects such as sedation”. The anti-spasticity effect result in the data set on spasticity is recorded as “most potent anti-spasticity pharmacological treatment; also recorded: effective in modulating spasticity; also recorded: potent antispasticity effect”.
